Assay results from patent US20080312164A1 (priority 2006, published 2008).
Where two headings read alike, the source gives them in different places.

Experiments:
human cancer cell lines = assay: Cytotoxicity across the panel of human cancer cell lines (average, high-throughput assays); format: cell-based; conditions: for IC50: read-out: Cancerous Average IC50 / Average IC50 in Cancer Cell Lines
From the text: (§1) Five serial 1:2 dilutions were made with anhydrous DMSO at 100× the final concentration used in the assay.

HT-29 cells = assay: MTT cytotoxicity assay, HT-29; format: cell-based; conditions: Homo sapiens
Hep3B cells [1] = assay: Cell Titer-Glo cytotoxicity assay, Hep3B; format: cell-based; conditions: Homo sapiens, 72 h
From the text: as §1

Du145 cells [2] = assay: Calcein AM cytotoxicity assay, Du145; format: cell-based; conditions: Homo sapiens
From the text: as §1

NCI/ADR RES cells [3] = assay: Cell Titer-Glo cytotoxicity assay, NCI/ADR-RES; format: cell-based, human; conditions: for IC50: Homo sapiens, NCI/ADR-RES, 72 h
From the text: as §1

NCI-H460 cells [4] = assay: Cell Titer-Glo cytotoxicity assay, NCI-H460; format: cell-based, human; conditions: Homo sapiens
From the text: as §1

SF-268 cells [5] = assay: Calcein AM cytotoxicity assay, SF-268; format: cell-based; conditions: Homo sapiens
From the text: as §1

SK-OV-3 cells [6] = assay: Cell Titer-Glo cytotoxicity assay, SK-OV-3; format: cell-based; conditions: Homo sapiens
From the text: as §1

Hep3B cells [7] = assay: Calcein AM cytotoxicity assay, Hep3B; format: cell-based; conditions: Homo sapiens, 72 h
From the text: as §1

NCI-H460 cells [8] = assay: Calcein AM cytotoxicity assay, NCI-H460; format: cell-based; conditions: Homo sapiens
From the text: as §1

MCF7 cells [9] = assay: Calcein AM cytotoxicity assay, MCF7; format: cell-based; conditions: Homo sapiens
From the text: as §1

SK-OV-3 cells [10] = assay: Calcein AM cytotoxicity assay, SK-OV-3; format: cell-based; conditions: Homo sapiens
From the text: as §1

HCT-116 cells [11] = assay: Cell Titer-Glo cytotoxicity assay, HCT-116; format: cell-based; conditions: Homo sapiens
From the text: as §1

NCI/ADR RES cells [12] = assay: Calcein AM cytotoxicity assay, NCI/ADR-RES; format: cell-based; conditions: Homo sapiens, 72 h
From the text: as §1

[13] = test system: NmuMG mouse mammary normal epithelial cells; assay: Calcein AM cytotoxicity assay, NmuMG; format: cell-based; conditions: Epithelial cell, 72 h
From the text: as §1

SF-268 cells [14] = assay: Cell Titer-Glo cytotoxicity assay, SF-268; format: cell-based; conditions: Homo sapiens
From the text: as §1

MCF7 cells [15] = assay: Cell Titer-Glo cytotoxicity assay, MCF7; format: cell-based, human; conditions: Homo sapiens
From the text: as §1

HCT-116 cells [16] = assay: Calcein AM cytotoxicity assay, HCT-116; format: cell-based; conditions: Homo sapiens
From the text: as §1

[17] = test system: NmuMG mouse mammary normal epithelial cells; assay: Cell Titer-Glo cytotoxicity assay, NmuMG; format: cell-based; conditions: for IC50: Mus musculus, Epithelial cell, 72 h
From the text: as §1

Du145 cells [18] = assay: Cell Titer-Glo cytotoxicity assay, Du145; format: cell-based; conditions: Homo sapiens
From the text: as §1

[19] = average across eight human cancer cell lines, MTT (HT-29) values excluded
[20] = HT-29, MTT, 24 h, read-out: IC50
[21] = DU-145, Du145, Calcein AM, 72 h, read-out: IC50
[22] = NCI-H460, Cell Titer-Glo, 72 h, read-out: IC50
[23] = SF-268, Calcein AM, 72 h, read-out: IC50
[24] = SK-OV-3, Cell Titer-Glo, 72 h, read-out: IC50
[25] = NCI-H460, Calcein AM, 72 h, read-out: IC50
[26] = MCF7, Calcein AM, 72 h, read-out: IC50
[27] = SK-OV-3, Calcein AM, 72 h, read-out: IC50
[28] = HCT-116, Cell Titer-Glo, 72 h, read-out: IC50
[29] = NmuMG, Calcein AM, read-out: IC50
[30] = SF-268, Cell Titer-Glo, 72 h, read-out: IC50
[31] = MCF7, Cell Titer-Glo, 72 h, read-out: IC50
[32] = HCT-116, Calcein AM, 72 h, read-out: IC50
[33] = NmuMG, Cell Titer-Glo, read-out: IC50
[34] = DU-145, Du145, Cell Titer-Glo, 72 h, read-out: IC50

S=C=NCc1cccnc1 [Compound 22, 3-(isothiocyanatomethyl)pyridine]
IC50 (human cancer cell lines; Homo sapiens): 2.54 µM | fold increase in effectiveness relative to L-sulforaphane (human cancer cell lines; potency in NCI/ADR RES and selectivity over NmuMG taken together): ~30 fold | IC50 (HT-29 cells; HT-29, 24 h): 21.3 µM | IC50 (Hep3B cells [1]): 3 µM | IC50 (Du145 cells [2]; DU-145, 72 h): < 1.88 µM | IC50 (NCI/ADR RES cells [3]): 1.18 ± 0.06 µM | fold more potent than L-sulforaphane (NCI/ADR RES cells [3]; NCI/ADR RES cells): ~7.5 fold | fold increase in potency versus 23 (NCI/ADR RES cells [3]; NCI/ADR RES cells, phenyl replaced by 3-pyridine): ≤ 10 fold | IC50 (NCI-H460 cells [4]; NCI-H460, 72 h): 4.51 µM | IC50 (SF-268 cells [5]; SF-268, 72 h): 2.68 µM | IC50 (SK-OV-3 cells [6]; SK-OV-3, 72 h): 2.21 µM | IC50 (Hep3B cells [7]): 3.64 µM | IC50 (NCI-H460 cells [8]; NCI-H460, 72 h): 5.18 µM | IC50 (MCF7 cells [9]; MCF7, 72 h): 2.31 µM | IC50 (SK-OV-3 cells [10]; SK-OV-3, 72 h): 2.6 µM | IC50 (HCT-116 cells [11]; HCT-116, 72 h): 2.04 ± 0.21 µM | IC50 (NCI/ADR RES cells [12]): 2.27 µM | IC50 [13]: < 12.5 µM | IC50 (SF-268 cells [14]; SF-268, 72 h): 2.46 µM | IC50 (MCF7 cells [15]; MCF7, 72 h): 2.04 µM | IC50 (HCT-116 cells [16]; HCT-116, 72 h): 1.26 µM | IC50 [17]: 26 ± 1.15 µM | fold less potent than L-sulforaphane ([17]; NmuMG cells): ~4 fold | IC50 (Du145 cells [18]; DU-145, 72 h): 2.91 µM

C[S+]([O-])CCCCN=C=S (racemic) [Compound 13, 1-isothiocyanato-4-(methylsulfinyl)butane]
IC50 (human cancer cell lines; [19]): 7.61 µM | IC50 (HT-29 cells; [20]): 46.4 µM | IC50 (Hep3B cells [1]; Cell Titer-Glo, read-out: IC50): 2.75 µM | IC50 (Du145 cells [2]; [21]): 6.25 µM | IC50 (NCI/ADR RES cells [3]; Cell Titer-Glo, read-out: IC50): 16.5 µM | IC50 (NCI-H460 cells [4]; [22]): 10.1 µM | IC50 (SF-268 cells [5]; [23]): 5.69 µM | IC50 (SK-OV-3 cells [6]; [24]): 9.9 µM | IC50 (Hep3B cells [7]): < 3.13 µM | IC50 (NCI-H460 cells [8]; [25]): 13 µM | IC50 (MCF7 cells [9]; [26]): 7.28 µM | IC50 (SK-OV-3 cells [10]; [27]): 5.65 µM | IC50 (HCT-116 cells [11]; [28]): 4.81 µM | IC50 (NCI/ADR RES cells [12]; Calcein AM, read-out: IC50): 13.1 µM | IC50 [13, 29]: 5.61 µM | IC50 (SF-268 cells [14]; [30]): 6.22 µM | IC50 (MCF7 cells [15]; [31]): 8.59 µM | IC50 (HCT-116 cells [16]; [32]): 6.13 µM | IC50 [17, 33]: 3.2 µM | IC50 (Du145 cells [18]; [34]): 8.62 µM

S=C=NCC(c1ccccc1)c1ccccc1 [Compound 40, 2-isothiocyanato-1,1-diphenylethane]
further fold increase in potency from multiple phenyl rings (human cancer cell lines; average IC50 compared with single-ring 23 and 38): ~2 fold | IC50 (human cancer cell lines; [19]): 4.11 µM | IC50 (HT-29 cells; [20]): 22.9 µM | IC50 (Hep3B cells [1]; Cell Titer-Glo, read-out: IC50): 4.3 µM | IC50 (Du145 cells [2]; [21]): 3.51 µM | IC50 (NCI/ADR RES cells [3]; Cell Titer-Glo, read-out: IC50): 4.47 µM | IC50 (NCI-H460 cells [4]; [22]): 5.64 µM | IC50 (SF-268 cells [5]; [23]): 3.49 µM | IC50 (SK-OV-3 cells [6]; [24]): 4.52 µM | IC50 (Hep3B cells [7]; Calcein AM, read-out: IC50): 3.58 µM | IC50 (NCI-H460 cells [8]; [25]): 9.91 µM | IC50 (MCF7 cells [9]; [26]): 3.62 µM | IC50 (SK-OV-3 cells [10]; [27]): 5.26 µM | IC50 (HCT-116 cells [11]; [28]): 1.22 µM | IC50 (NCI/ADR RES cells [12]; Calcein AM, read-out: IC50): 3.95 µM | IC50 [13, 29]: 5.81 µM | IC50 (SF-268 cells [14]; [30]): 3.33 µM | IC50 (MCF7 cells [15]; [31]): 3.68 µM | IC50 (HCT-116 cells [16]; [32]): 3.26 µM | IC50 [17, 33]: 3.62 µM | IC50 (Du145 cells [18]; [34]): 3.65 µM

CC(C)(C)CN=C=S [Compound 16, 1-isothiocyanato-2,2-dimethylpropane]
IC50 (human cancer cell lines; [19]): > 50 µM | IC50 (HT-29 cells; [20]): > 50 µM | IC50 (Hep3B cells [1]; Cell Titer-Glo, read-out: IC50): > 50 µM | IC50 (Du145 cells [2]; [21]): > 50 µM | IC50 (NCI/ADR RES cells [3]; Cell Titer-Glo, read-out: IC50): > 50 µM | IC50 (NCI-H460 cells [4]; [22]): 30.3 µM | IC50 (SF-268 cells [5]; [23]): > 50 µM | IC50 (SK-OV-3 cells [6]; [24]): > 50 µM | IC50 (Hep3B cells [7]; Calcein AM, read-out: IC50): > 50 µM | IC50 (NCI-H460 cells [8]; [25]): > 50 µM | IC50 (MCF7 cells [9]; [26]): > 50 µM | IC50 (SK-OV-3 cells [10]; [27]): > 50 µM | IC50 (HCT-116 cells [11]; [28]): 35 µM | IC50 (NCI/ADR RES cells [12]; Calcein AM, read-out: IC50): > 50 µM | IC50 [13, 29]: 49.4 µM | IC50 (SF-268 cells [14]; [30]): > 50 µM | IC50 (MCF7 cells [15]; [31]): > 50 µM | IC50 (HCT-116 cells [16]; [32]): > 50 µM | IC50 [17, 33]: 26.8 µM | IC50 (Du145 cells [18]; [34]): > 50 µM

CS(=O)(=O)CCCCN=C=S [Compound 14, 1-isothiocyanato-4-(methylsulfonyl)butane]
IC50 (human cancer cell lines; [19]): 5.32 µM | IC50 (HT-29 cells; [20]): 39.1 µM | IC50 (Hep3B cells [1]; Cell Titer-Glo, read-out: IC50): 4.48 µM | IC50 (Du145 cells [2]; [21]): 5.24 µM | IC50 (NCI/ADR RES cells [3]; Cell Titer-Glo, read-out: IC50): 11.1 µM | IC50 (NCI-H460 cells [4]; [22]): 6.87 µM | IC50 (SF-268 cells [5]; [23]): 4.72 µM | IC50 (SK-OV-3 cells [6]; [24]): 6.99 µM | IC50 (Hep3B cells [7]; Calcein AM, read-out: IC50): 3.46 µM | IC50 (NCI-H460 cells [8]; [25]): 10 µM | IC50 (MCF7 cells [9]; [26]): 8.36 µM | IC50 (SK-OV-3 cells [10]; [27]): 4.84 µM | IC50 (HCT-116 cells [11]; [28]): 3.29 µM | IC50 (NCI/ADR RES cells [12]; Calcein AM, read-out: IC50): 9.99 µM | IC50 [13, 29]: 7.9 µM | IC50 (SF-268 cells [14]; [30]): 3.7 µM | IC50 (MCF7 cells [15]; [31]): 2.28 µM | IC50 (HCT-116 cells [16]; [32]): 4.16 µM | IC50 [17, 33]: 5.32 µM | IC50 (Du145 cells [18]; [34]): 4 µM
